Structures are written as SMILES.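 Dose response: 5 concentrations. Exposure: 48 h. Format: 96-well plates. Endpoint: linear interpolation; highest concentration if not reached. GI50: concentration for 50% inhibition of growth.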 Active and inactive are the calls of the source. Rule as the data show it: active = GI50 up to about 1.1 µM and inactive = higher. Some results are limits rather than exact numbers.

Test systems include XF498; DMS-273; KM-20L2; DLD-1; SNB-78; M19-MEL; HOP-18; 786-0; RXF 631.
What all share (assay): NCI anticancer screen, dose series, 48 h

Regarding `CC(C)OP(=O)(OC(C)C)/C(I)=N/Nc1ccc([N+](=O)[O-])cc1`, the GI50 in the assay on XF498, in the assay on DMS-273, in the assay with KM-20L2, with DLD-1, in the assay on SNB-78 and in the assay on M19-MEL was > 100 µM (inactive) each time.

On to `Cc1c2cnccc2c(C)c2c1c1ccccc1n2CCCCCCNCc1ccccc1`, for which the GI50 in the assay on XF498 was 2.29 µM (inactive); in the assay with DMS-273 it was 1.21 µM (inactive); in the assay with KM-20L2, 1.49 µM (inactive); with DLD-1 it was 0.879 µM (active); in the assay on SNB-78, 1.96 µM (inactive); in the assay on HOP-18, 0.547 µM (active). For the same molecule, in the assay with M19-MEL, the GI50 was 2.09 µM (inactive).

For `O=c1[nH]c2c(c3ccccc13)CCc1ccccc1-2`, the GI50 in the assay with DMS-273, with KM-20L2, in the assay on 786-0, with SNB-78 and with M19-MEL was > 100 µM (inactive) throughout.

For `O=C(CCN(CCO)CCO)Nc1ccc2c(c1)C(=O)c1ccc(NC(=O)CCN(CCO)CCO)cc1C2=O`, the GI50 in the assay with XF498 was 11.9 µM (inactive); in the assay with DMS-273, 6.64 µM (inactive); in the assay with KM-20L2 it was 48.4 µM (inactive); in the assay on 786-0, 4.62 µM (inactive); in the assay on SNB-78, 6.62 µM (inactive); with HOP-18, 27 µM (inactive). The GI50 in the assay with M19-MEL was 13.7 µM (inactive).

Consider `O=C1C(Cl)N(c2ccccc2)C1c1c[nH]c2ccccc12` (stereo unspecified), for which the GI50 in the assay with XF498, in the assay with KM-20L2 and with M19-MEL was > 100 µM (inactive) in each case.

Turning to `O=c1oc2ccccc2n1P(=O)(n1c(=O)oc2ccccc21)n1c(=O)oc2ccccc21`, the GI50 in the assay on XF498, with DMS-273, in the assay with KM-20L2, with RXF 631, in the assay with DLD-1 and in the assay on SNB-78 was > 100 µM (inactive) in each case. Also, the GI50 in the assay with M19-MEL is 60.3 µM (inactive).

As for `C=C(C(=O)C(=O)Oc1ccc(Cl)cc1)C(=O)c1ccc(C)cc1`, the GI50 in the assay on XF498 was > 100 µM (inactive); in the assay on DMS-273 it was 39.2 µM (inactive); in the assay with KM-20L2 it was 59.7 µM (inactive); in the assay on RXF 631 it was 46.2 µM (inactive); in the assay on DLD-1, 28.4 µM (inactive); in the assay with SNB-78 it was 65 µM (inactive). The values for the GI50 with HOP-18 and in the assay with M19-MEL were > 100 µM (inactive) and 17.7 µM (inactive), respectively.

In the case of `c1ccc2cc3n[se]nc3cc2c1`, the GI50 in the assay with DMS-273 was > 100 µM (inactive); in the assay on KM-20L2 it was > 100 µM (inactive); with RXF 631, 10.4 µM (inactive); with DLD-1 it was 62.4 µM (inactive); with SNB-78, > 100 µM (inactive); with HOP-18, < 0.01 µM (active).

Turning to `Nc1nc2ccc(Sc3ccc4nc(N)[nH]c(=O)c4c3)cc2c(=O)[nH]1`, the GI50 with 786-0 was > 100 µM (inactive).

As to `COc1cc(Br)c(CC2C3=C(CCN2C(=O)C2CCC2)CC(=O)CC3)cc1O` (stereo unspecified), in the assay on 786-0, the GI50 is 26.5 µM (inactive).

As to `NC1(C(=O)O)CCCC1` [CYCLOLEUCINE], the GI50 was 5.77 µM (inactive) in the assay on XF498; > 625 µM (inactive) in the assay with DMS-273; > 625 µM (inactive) with KM-20L2; > 625 µM (inactive) with DLD-1; > 244 µM (inactive) in the assay with SNB-78; > 625 µM (inactive) in the assay on HOP-18. In addition, in the assay on M19-MEL, the GI50 was > 625 µM (inactive).

For the molecule `C/C(=C1/N=C(c2cc([N+](=O)[O-])ccc2Cl)N(c2ccc(Br)cc2)C1=O)c1cc2ccccc2oc1=O`, the GI50 was 17.6 µM (inactive) in the assay on KM-20L2; 22.1 µM (inactive) in the assay with DLD-1; 31.6 µM (inactive) in the assay on SNB-78; > 100 µM (inactive) in the assay with HOP-18; 5.89 µM (inactive) in the assay on M19-MEL.

Take `O=C(CC12C3C4C1C1C2C3C41CC(=O)NO)NO` (stereo unspecified): the GI50 is > 100 µM (inactive) with XF498; 40.6 µM (inactive) with DMS-273; 38.2 µM (inactive) in the assay with KM-20L2; 27.4 µM (inactive) in the assay on RXF 631; 48.1 µM (inactive) in the assay on DLD-1; 40.7 µM (inactive) with 786-0. Besides, the GI50 in the assay with SNB-78 is 44.3 µM (inactive).

Consider `CCCNc1[nH]c(C(=O)c2ccccc2)c(N)c1C(=S)Nc1ccccc1`, for which the GI50 in the assay with 786-0 is > 100 µM (inactive).
